According to patent publication EP0694535A1, “Non-peptidyl tachykinin receptor antagonists” (ELI LILLY AND COMPANY, priority 1994, dated 1996):

target: T1, NK-1 receptor (Homo sapiens, UniProt P25103); test: NK-1 Receptor Binding Assay (competition with labeled substance P on IM9 cells); details: at 10μM, inhibition of substance P binding to the NK-1 receptor, read-out: Percent Inhibition
T1 construct: an aliquot of IM9 cells; endogenous in cells; host or cells: IM9 cells (whole cells)
Procedure: Radioreceptor binding assays were performed using a derivative of a previously published protocol. D.G. Payan, et al., Journal of Immunology, 133:3260-3265 (1984). In this assay an aliquot of IM9 cells (1 x 10⁶ cells/tube in […] medium supplemented with 10% fetal calf serum) was incubated with 20 pM […] substance P in the presence of increasing competitor concentrations for 45 minutes at 4°C.
The IM9 cell line is a well-characterized cell line which is readily available to the public. See. e.g., Annals of the New York Academy of Science, 190: 221-234 (1972); Nature (London), 251:443-444 (1974); Proceedings of the National Academy of Sciences (USA), 71:84-88 (1974). These cells were routinely cultured in RPMI 1640 supplemented with 50 µg/ml gentamicin sulfate and 10% fetal calf serum.
The reaction was terminated by filtration through a glass fiber filter harvesting system using filters previously soaked for 20 minutes in 0.1% polyethylenimine. Specific binding of labeled substance P was determined in the presence of 20 nM unlabeled ligand.
Column 1 provides the example number of the test antagonist compound. The next columns detail the substitution patterns of the test compound.

T1 sequence (P25103 whole entry): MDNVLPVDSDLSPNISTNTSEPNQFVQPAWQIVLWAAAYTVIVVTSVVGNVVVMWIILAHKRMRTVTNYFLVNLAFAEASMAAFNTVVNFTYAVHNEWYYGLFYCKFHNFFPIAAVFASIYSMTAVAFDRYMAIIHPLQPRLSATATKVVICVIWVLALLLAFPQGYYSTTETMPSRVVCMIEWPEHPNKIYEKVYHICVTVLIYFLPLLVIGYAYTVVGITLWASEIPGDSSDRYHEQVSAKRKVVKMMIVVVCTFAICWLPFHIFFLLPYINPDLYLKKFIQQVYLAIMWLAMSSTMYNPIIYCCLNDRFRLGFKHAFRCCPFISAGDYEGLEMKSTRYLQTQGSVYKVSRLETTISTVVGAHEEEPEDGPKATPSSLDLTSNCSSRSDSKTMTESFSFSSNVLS

inhibition at 10 µM [%] | Structure (SMILES)
77 | COc1cc(-c2nc3ccccc3n2Cc2cccc(Cl)c2)cc(OC)c1OC [Example 40, 1-(3-chlorobenzyl)-2-(3,4,5-trimethoxyphenyl)-benzimidazole]
61 | COc1cc(-c2nc3ccccc3n2Cc2ccc(Cl)cc2)cc(OC)c1OC [Example 42, 1-(4-chlorobenzyl)-2-(3,4,5-trimethoxyphenyl)-benzimidazole]

same assay, conditions: concentration which inhibits fifty percent of the binding of substance P, 20 pM labeled substance P, 45 minutes at 4°C

IC50 [µM] | Structure (SMILES)
0.815 | COc1cc(-c2nc3ccccc3n2Cc2ccccc2Cl)cc(OC)c1OC [Example 41, 1-(2-chlorobenzyl)-2-(3,4,5-trimethoxyphenyl)-benzimidazole]
0.842 | COc1cc(-c2nc3ccccc3n2Cc2ccccc2C)cc(OC)c1OC [Example 43, 1-(2-methylbenzyl)-2-(3,4,5-trimethoxyphenyl)-benzimidazole]
2.05 | COc1cc(-c2nc3ccccc3n2Cc2cccc(C)c2)cc(OC)c1OC [Example 44, 1-(3-methylbenzyl)-2-(3,4,5-trimethoxyphenyl)-benzimidazole]

target: T2, human NK-2 receptor (Homo sapiens, UniProt P21452); test: NK-2 Receptor Binding Assay (CHO-hNK-2R membranes, iodohistidyl-neurokinin A); details: inhibition of neurokinin A binding at ten micromolar, read-out: Percent Inhibition @ 10 μM
T2 construct: expressed in transfected cells; host or cells: CHO-hNK-2R cells (CHO-derived), membrane preparation
T2 sequence (P21452 1-398): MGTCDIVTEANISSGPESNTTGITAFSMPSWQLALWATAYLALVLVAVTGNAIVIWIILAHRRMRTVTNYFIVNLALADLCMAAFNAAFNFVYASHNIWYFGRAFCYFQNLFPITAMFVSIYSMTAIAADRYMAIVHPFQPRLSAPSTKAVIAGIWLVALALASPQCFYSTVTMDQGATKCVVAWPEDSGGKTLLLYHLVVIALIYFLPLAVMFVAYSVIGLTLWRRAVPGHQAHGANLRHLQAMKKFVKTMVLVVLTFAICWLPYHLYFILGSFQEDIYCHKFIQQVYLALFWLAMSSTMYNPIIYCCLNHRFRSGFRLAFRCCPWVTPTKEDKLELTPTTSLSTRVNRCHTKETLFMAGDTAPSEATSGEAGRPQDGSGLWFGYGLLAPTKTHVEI
Procedure: The CHO-hNK-2R cells, a CHO-derived cell line transformed with the human NK-2 receptor, expressing about 400,000 such receptors per cell, were grown in 75 cm flasks or roller bottles in minimal essential medium (alpha modification) with 10% fetal bovine serum. The gene sequence of the human NK-2 receptor is given in N.P. Gerard, et al., Journal of Biological Chemistry, 265:20455-20462 (1990).
For preparation of membranes, 30 confluent roller bottle cultures were dissociated by washing each roller bottle with 10 ml of Dulbecco's phosphate buffered saline (PBS) without calcium and magnesium, followed by addition of 10 ml of enzyme-free cell dissociation solution (PBS-based, from Specialty Media, Inc.). After an additional 15 minutes, the dissociated cells were pooled and centrifuged at 1,000 RPM for 10 minutes in a clinical centrifuge. Membranes were prepared by homogenization of the cell pellets in 300 ml 50 mM Tris buffer, pH 7.4 with a Tekmar® homogenizer for 10-15 seconds, followed by centrifugation at 12,000 RPM (20,000 x g) for 30 minutes using a Beckman JA-14® rotor. The pellets were washed once using the above procedure. and the final pellets were resuspended in 100-120 ml 50 mM Tris buffer, pH 7.4, and 4 ml aliquots stored frozen at -70 °C. The protein concentration of this preparation was 2 mg/ml.
For the receptor binding assay, one 4-ml aliquot of the CHO-hNK-2R membrane preparation was suspended in 40 ml of assay buffer containing 50 mM Tris, pH 7.4, 3 mM manganese chloride, 0.02% bovine serum albumin (BSA) and 4 µg/ml chymostatin. A 200 µl volume of the homogenate (40 µg protein) was used per sample. The radioactive ligand was [[…]]iodohistidyl-neurokinin A (New England Nuclear, NEX-252), 2200 Ci/mmol. The ligand was prepared in assay buffer at 20 nCi per 100 µl; the final concentration in the assay was 20 pM. Non-specific binding was determined using 1 µM eledoisin. Ten concentrations of eledoisin from 0.1 to 1000 nM were used for a standard concentration-response curve.
All samples and standards were added to the incubation in 10 µl dimethylsulfoxide (DMSO) for screening (single dose) or in 5 µl DMSO for IC₅₀ determinations. The order of additions for incubation was 190 or 195 µl assay buffer, 200 µl homogenate, 10 or 5 µl sample in DMSO, 100 µl radioactive ligand. The samples were incubated 1 hr at room temperature and then filtered on a cell harvester through filters which had been presoaked for two hours in 50 mM Tris buffer, pH 7.7, containing 0.5% BSA. The filter was washed 3 times with approximately 3 ml of cold 50 mM Tris buffer, pH 7.7. The filter circles were then punched into 12 x 75 mm polystyrene tubes and counted in a gamma counter.
Table II, infra, provides a representative sample of the effectiveness as NK-2 receptor antagonists of many of the compounds of Formula I. The first column provides the Example number of the compound tested. The second column provides either the percent inhibition of neurokinin A binding when the compound is present in a ten micromolar concentration or the amount of compound (in micromolar amounts) necessary to inhibit fifty percent of the binding of neurokinin A. Those values which represent IC₅₀ values are designated by parentheses.

inhibition at 10 µM [%] | Structure (SMILES)
55 | COc1cc(-c2nc3ccccc3n2Cc2cccc(Cl)c2)cc(OC)c1OC [Example 40, 1-(3-chlorobenzyl)-2-(3,4,5-trimethoxyphenyl)-benzimidazole]
73.7 | COc1cc(-c2nc3ccccc3n2Cc2ccccc2Cl)cc(OC)c1OC [Example 41, 1-(2-chlorobenzyl)-2-(3,4,5-trimethoxyphenyl)-benzimidazole]
2.6 | COc1cc(-c2nc3ccccc3n2Cc2ccc(Cl)cc2)cc(OC)c1OC [Example 42, 1-(4-chlorobenzyl)-2-(3,4,5-trimethoxyphenyl)-benzimidazole]
68.4 | COc1cc(-c2nc3ccccc3n2Cc2ccccc2C)cc(OC)c1OC [Example 43, 1-(2-methylbenzyl)-2-(3,4,5-trimethoxyphenyl)-benzimidazole]
52.9 | COc1cc(-c2nc3ccccc3n2Cc2cccc(C)c2)cc(OC)c1OC [Example 44, 1-(3-methylbenzyl)-2-(3,4,5-trimethoxyphenyl)-benzimidazole]
31.6 | Cc1cccc(-c2nc3ccc(OCCN(C)C)cc3n2Cc2ccccc2)c1 [Example 88, 1-benzyl-2-(3-methylphenyl)-6-[2-(N,N-dimethylamino)ethoxy]benzimidazole]
38.4 | Cc1cccc(-c2nc3ccc(OCCCN(C)C)cc3n2Cc2ccccc2)c1 [Example 94, 1-benzyl-2-(3-methylphenyl)-6-[3-(N,N-dimethylamino)propoxy]benzimidazole]
34 | Cc1cccc(-c2nc3ccc(OCC(C)N(C)C)cc3n2Cc2ccccc2)c1 (stereo not shown) [Example 96, 1-benzyl-2-(3-methylphenyl)-6-[2-(N,N-dimethylamino)propoxy]-benzimidazole]
39.3 | COc1cc(-c2nc3ccc(O)cc3n2Cc2ccccc2C(F)(F)F)cc(OC)c1OC [Example 104, 1-(2-trifluoromethylbenzyl)-2-(3,4,5-trimethoxyphenyl)-6-hydroxybenzimidazole]
57.4 | COc1cc(-c2nc3ccc(O)cc3n2Cc2ccccc2Br)cc(OC)c1OC [Example 114, 1-(2-bromobenzyl)-2-(3,4,5-trimethoxyphenyl)-6-hydroxybenzimidazole]
55.9 | Cc1cccc(-c2nc3ccc(O)cc3n2Cc2ccccc2C(F)(F)F)c1 [Example 120, 1-(2-trifluoromethylbenzyl)-2-(3-methylphenyl)-6-hydroxybenzimidazole]

Continued, compound first:

Structure (SMILES) | inhibition at 10 µM [%]
Cc1cccc(-c2nc3ccc(OCCN4CCCC4)cc3n2Cc2ccccc2)c1 [Example 86, 1-benzyl-2-(3-methylphenyl)-6-[2-(1-pyrrolidinyl)ethoxy]benzimidazole] | 48.5
Cc1cccc(-c2nc3ccc(OCCN4CCOCC4)cc3n2Cc2ccccc2)c1 [Example 87, 1-benzyl-2-(3-methylphenyl)-6-[2-(4-morpholinyl)ethoxy]benzimidazole] | 81.9
Cc1cccc(-c2nc3ccc(OCCN(Cc4ccccc4)Cc4ccccc4)cc3n2Cc2ccccc2)c1 [Example 89, 1-benzyl-2-(3-methylphenyl)-6-[2-(N,N-dibenzylamino)ethoxy]benzimidazole] | 24.5
CCN(CCOc1ccc2nc(-c3cccc(C)c3)n(Cc3ccccc3)c2c1)c1ccccc1 [Example 90, 1-benzyl-2-(3-methylphenyl)-6-[2-(N-phenyl-N-ethylamino)ethoxy]benzimidazole] | 34
Cc1cccc(-c2nc3ccc(OCCN(C(C)C)C(C)C)cc3n2Cc2ccccc2)c1 [Example 91, 1-benzyl-2-(3-methylphenyl)-6-[2-(N,N-isopropylamino)ethoxy]benzimidazole] | 60.7
Cc1cccc(-c2nc3ccc(OCCN4CCCCCC4)cc3n2Cc2ccccc2)c1 [Example 92, 1-benzyl-2-(3-methylphenyl)-6-[2-(hexamethyleneimin-1-yl)ethoxy]benzimidazole] | 82.5
CCN(CC)CCOc1ccc2nc(-c3cccc(C)c3)n(Cc3ccccc3)c2c1 [Example 93, 1-benzyl-2-(3-methylphenyl)-6-[2-(N,N-diethylamino)ethoxy]benzimidazole] | 42
Cc1cccc(-c2nc3ccc(OCCCN4CCCCC4)cc3n2Cc2ccccc2)c1 [Example 95, 1-benzyl-2-(3-methylphenyl)-6-[3-(piperdin-1-yl)propoxy]benzimidazole] | 80.4
Cc1cccc(-c2nc3ccc(OCCCCl)cc3n2Cc2ccccc2)c1 [Example 97, 1-benzyl-2-(3-methylphenyl)-6-(3-chloropropoxy)-benzimidazole] | 64.4

same assay, conditions: values in parentheses, amount necessary to inhibit fifty percent of the binding of neurokinin A

IC50 [µM] | Structure (SMILES)
5.17 | COc1cc(-c2nc3ccc(OCCN4CCCCC4)cc3n2Cc2ccccc2C(F)(F)F)cc(OC)c1OC [Example 105, 1-(2-trifluoromethylbenzyl)-2-(3,4,5-trimethoxyphenyl)-6-[2-(piperidin-1-yl)ethoxy]benzimidazole]
4.29 | COc1cc(-c2nc3ccc(OCCN4CCCCC4)cc3n2Cc2ccccc2Br)cc(OC)c1OC [Example 115, 1-(2-bromobenzyl)-2-(3,4,5-trimethoxyphenyl)-6-[2-(piperidin-1-yl)ethoxy]benzimidazole]

The remaining lines, values behind:

Structure (SMILES) | IC50 [µM]
Cc1cccc(-c2nc3ccc(OCCCl)cc3n2Cc2ccccc2)c1 [Example 98, 1-benzyl-2-(3-methylphenyl)-6-(2-chloroethoxy)-benzimidazole] | 7.24
Cc1cccc(-c2nc3ccc(OCCCN4CCOCC4)cc3n2Cc2ccccc2)c1 [Example 99, 1-benzyl-2-(3-methylphenyl)-6-[3-(morpholin-4-yl)propoxy)benzimidazole] | 3.08
Cc1cccc(-c2nc3ccc(OCCCN4CCCC4)cc3n2Cc2ccccc2)c1 [Example 100, 1-benzyl-2-(3-methylphenyl)-6-[3-(pyrrolidin-1-yl)propoxy)benzimidazole] | 6.8
Cc1cccc(-c2nc3ccc(OCCCN4CCCCCC4)cc3n2Cc2ccccc2)c1 [Example 101, 1-benzyl-2-(3-methylphenyl)-6-[3-(hexamethyleneimin-1-yl)propoxy)benzimidazole] | 1.04
